Measurements from the supplement of paper PMC10307832.

What follows are cell lines tested with CN1CCN(CC1)C2=CC(=C(C=C2)NC3=NC=C4C(=N3)N(C5=CC=CC=C5C(=O)N4C)C)OC [XMD8-85] + O=C(CCCCCCC(=O)Nc1ccccc1)NO [Vorinostat] (partner 1 µM) (assay: relative viability (nuclei count vs DMSO), 5 days (fraction); higher = more cells survive). Details: first compound 0.08 µM.
Outline: (§1)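 Lung cancer cell lines, seeded in 1536-well plates, were treated the following day by pin tool with a single drug or with five library-drug doses (not always all listed) in √10 steps on top of a fixed anchor-drug dose. Cells were fixed and nuclei stained in one step after 5 days, and nuclei were counted. Relative viability is the nuclei count for treated wells divided by that for vehicle wells, reported as medians of duplicate plates.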

In order of rising relative viability:
1. LK-2  0.25
2. HCC-366  0.292
3. LU99A  0.363
4. HCC-78  0.395
5. EPLC-272H  0.414
6. EMC-BAC-2  0.424
7. NCI-H23  0.508
8. NCI-H1648  0.522
9. NCI-H460  0.53
10. HARA  0.549
11. HOP-62  0.605
12. EKVX  0.631
13. NCI-H441  0.72
14. COR-L 105  0.737
15. LC-2-ad  0.739
16. LXF-289  0.749
17. ChaGo-K-1  0.751
18. NCI-H520  0.774
19. LCLC-97TM1  0.786
20. LCLC-103H  0.799
21. IA-LM  0.824
22. NCI-H322M  0.832
23. H3255  0.875
24. HCC-15  0.896
25. LOU-NH91  0.896
26. HCC-827  0.909
27. HCC-44  1.11

Same assay, conditions: first compound 0.253 µM

In order of rising relative viability:
1. HCC-366  0.346
2. EPLC-272H  0.401
3. LK-2  0.421
4. HCC-78  0.43
5. EMC-BAC-2  0.468
6. NCI-H1648  0.474
7. COR-L23  0.486
8. LU99A  0.518
9. BEN  0.536
10. HARA  0.592
11. NCI-H23  0.634
12. NCI-H358  0.635
13. NCI-H441  0.666
14. HOP-62  0.673
15. NCI-H520  0.69
16. IA-LM  0.731
17. H3255  0.761
18. LCLC-103H  0.77
19. ChaGo-K-1  0.782
20. NCI-H460  0.786
21. EKVX  0.8
22. NCI-H322M  0.815
23. HCC-15  0.819
24. LCLC-97TM1  0.823
25. HCC-827  0.824
26. CAL-12T  0.861
27. A-427  0.866
28. LXF-289  0.893
29. LOU-NH91  0.904
30. COR-L 105  0.91
31. 201T  1.03
32. HCC-44  1.07
33. ABC-1  1.27

Same assay, conditions: first compound 0.8 µM

In order of falling relative viability:
1. HCC-44  1.07
2. ABC-1  1.01
3. 201T  0.961
4. LCLC-97TM1  0.915
5. A-427  0.911
6. LOU-NH91  0.91
7. NCI-H322M  0.885
8. H3255  0.867
9. NCI-H441  0.859
10. EKVX  0.851
11. IA-LM  0.812
12. HCC-15  0.806
13. HCC-827  0.802
14. LCLC-103H  0.784
15. LXF-289  0.781
16. COR-L 105  0.768
17. ChaGo-K-1  0.76
18. NCI-H358  0.71
19. LC-2-ad  0.702
20. NCI-H460  0.672
21. NCI-H23  0.638
22. BEN  0.627
23. HOP-62  0.622
24. HARA  0.565
25. COR-L23  0.558
26. LU99A  0.506
27. EMC-BAC-2  0.413
28. HCC-78  0.391
29. EPLC-272H  0.335
30. HCC-366  0.304
31. LK-2  0.271
32. NCI-H1648  0.265

Same assay, conditions: first compound 2.53 µM

In order of falling relative viability:
1. HCC-44  1.16
2. LOU-NH91  1.04
3. NCI-H441  1.02
4. 201T  0.978
5. ABC-1  0.969
6. HCC-827  0.959
7. EKVX  0.91
8. H3255  0.902
9. LXF-289  0.875
10. A-427  0.865
11. ChaGo-K-1  0.81
12. LCLC-103H  0.801
13. HCC-15  0.792
14. LCLC-97TM1  0.784
15. NCI-H322M  0.779
16. NCI-H460  0.766
17. LC-2-ad  0.691
18. NCI-H520  0.673
19. IA-LM  0.662
20. COR-L 105  0.661
21. NCI-H358  0.619
22. CAL-12T  0.602
23. HOP-62  0.598
24. NCI-H23  0.591
25. COR-L23  0.516
26. BEN  0.501
27. HARA  0.427
28. HCC-78  0.427
29. EMC-BAC-2  0.385
30. HCC-366  0.378
31. EPLC-272H  0.296
32. LK-2  0.264
33. NCI-H1648  0.244

Same assay, conditions: first compound 8 µM

In order of falling relative viability:
1. HCC-44  1.04
2. LXF-289  0.795
3. HCC-827  0.773
4. 201T  0.741
5. NCI-H441  0.698
6. A-427  0.659
7. LOU-NH91  0.641
8. EKVX  0.626
9. ChaGo-K-1  0.619
10. NCI-H322M  0.606
11. IA-LM  0.588
12. HCC-15  0.586
13. LCLC-103H  0.585
14. COR-L 105  0.543
15. H3255  0.536
16. CAL-12T  0.534
17. ABC-1  0.533
18. HARA  0.47
19. BEN  0.455
20. HCC-78  0.434
21. LC-2-ad  0.434
22. LU99A  0.428
23. NCI-H520  0.331
24. NCI-H23  0.31
25. NCI-H1648  0.292
26. NCI-H358  0.261
27. LCLC-97TM1  0.259
28. EPLC-272H  0.243
29. COR-L23  0.236
30. HOP-62  0.231
31. LK-2  0.206
32. EMC-BAC-2  0.185
33. HCC-366  0.181
34. NCI-H460  0.146

These cell lines were tested with O=C(O)C(Cc1ccccc1[N+](=O)[O-])=NNc1nc(-c2ccc(Cl)c(Cl)c2)cs1 (mixture of isomers) [4EGI-1] + Cc1cc(Nc2cc(N3CCN(C)CC3)nc(Sc3ccc(NC(=O)C4CC4)cc3)n2)n[nH]1 [Tozasertib] (partner 0.1 µM) in the same assay as above. Details: first compound 0.5 µM.
Outline: as §1

In order of rising relative viability:
1. NCI-H358  0.102
2. HARA  0.129
3. HCC-366  0.131
4. A-427  0.192
5. LK-2  0.193
6. ABC-1  0.201
7. LXF-289  0.203
8. ChaGo-K-1  0.209
9. COR-L23  0.215
10. LCLC-97TM1  0.231
11. LU99A  0.258
12. EPLC-272H  0.288
13. EMC-BAC-2  0.324
14. HCC-15  0.331
15. CAL-12T  0.354
16. COR-L 105  0.369
17. HOP-62  0.385
18. NCI-H23  0.393
19. LC-2-ad  0.415
20. HCC-827  0.428
21. EKVX  0.434
22. NCI-H322M  0.457
23. NCI-H520  0.47
24. NCI-H1623  0.481
25. HCC-78  0.538
26. NCI-H460  0.538
27. LCLC-103H  0.557
28. NCI-H1648  0.604
29. BEN  0.631
30. LOU-NH91  0.671
31. NCI-H441  0.688
32. H3255  0.789
33. HCC-44  0.971
34. 201T  1.01

Same assay, conditions: first compound 1.581 µM

In order of rising relative viability:
1. HCC-366  0.0938
2. NCI-H358  0.117
3. HARA  0.121
4. COR-L23  0.145
5. ABC-1  0.15
6. LCLC-97TM1  0.184
7. A-427  0.195
8. ChaGo-K-1  0.208
9. LXF-289  0.22
10. LU99A  0.227
11. HOP-62  0.257
12. EMC-BAC-2  0.262
13. CAL-12T  0.264
14. COR-L 105  0.343
15. EKVX  0.359
16. HCC-15  0.377
17. NCI-H1623  0.421
18. HCC-827  0.422
19. H3255  0.43
20. LCLC-103H  0.479
21. NCI-H520  0.496
22. NCI-H441  0.538
23. NCI-H1648  0.623
24. BEN  0.626
25. 201T  0.91

Same assay, conditions: first compound 5 µM

In order of rising relative viability:
1. HCC-366  0.0608
2. HARA  0.101
3. NCI-H358  0.102
4. A-427  0.189
5. COR-L23  0.189
6. LK-2  0.199
7. LXF-289  0.204
8. ABC-1  0.21
9. ChaGo-K-1  0.212
10. LCLC-97TM1  0.215
11. EPLC-272H  0.297
12. LU99A  0.298
13. CAL-12T  0.315
14. EMC-BAC-2  0.329
15. HCC-78  0.336
16. COR-L 105  0.343
17. HOP-62  0.403
18. HCC-827  0.415
19. EKVX  0.433
20. NCI-H460  0.45
21. NCI-H23  0.471
22. LC-2-ad  0.483
23. NCI-H520  0.499
24. HCC-15  0.5
25. NCI-H322M  0.509
26. BEN  0.53
27. NCI-H1648  0.532
28. NCI-H1623  0.535
29. LCLC-103H  0.537
30. NCI-H441  0.574
31. LOU-NH91  0.666
32. H3255  0.726
33. 201T  0.905
34. HCC-44  0.946

Same assay, conditions: first compound 15.81 µM

In order of falling relative viability:
1. HCC-78  1.56
2. 201T  0.771
3. H3255  0.571
4. NCI-H441  0.541
5. BEN  0.475
6. NCI-H322M  0.469
7. NCI-H1648  0.466
8. LCLC-103H  0.434
9. LOU-NH91  0.432
10. NCI-H520  0.385
11. HCC-44  0.384
12. NCI-H23  0.382
13. EKVX  0.368
14. NCI-H1623  0.36
15. LC-2-ad  0.347
16. HOP-62  0.34
17. CAL-12T  0.315
18. EMC-BAC-2  0.312
19. HCC-15  0.308
20. COR-L 105  0.286
21. LU99A  0.28
22. LCLC-97TM1  0.219
23. ChaGo-K-1  0.209
24. ABC-1  0.206
25. A-427  0.205
26. EPLC-272H  0.172
27. COR-L23  0.157
28. LK-2  0.151
29. LXF-289  0.151
30. NCI-H460  0.144
31. HARA  0.105
32. NCI-H358  0.102
33. HCC-366  0.0943

Same assay, conditions: first compound 50 µM

In order of rising relative viability:
1. HCC-366  0.0321
2. HARA  0.0717
3. NCI-H358  0.0781
4. COR-L23  0.0963
5. A-427  0.0979
6. LCLC-97TM1  0.102
7. LK-2  0.151
8. HCC-15  0.155
9. LXF-289  0.168
10. ABC-1  0.172
11. EPLC-272H  0.193
12. ChaGo-K-1  0.208
13. LU99A  0.208
14. CAL-12T  0.21
15. HOP-62  0.211
16. NCI-H23  0.214
17. LC-2-ad  0.232
18. EMC-BAC-2  0.26
19. HCC-44  0.282
20. NCI-H441  0.284
21. HCC-78  0.289
22. NCI-H322M  0.29
23. NCI-H460  0.314
24. NCI-H1648  0.314
25. NCI-H1623  0.33
26. HCC-827  0.358
27. COR-L 105  0.366
28. EKVX  0.371
29. NCI-H520  0.371
30. LCLC-103H  0.394
31. BEN  0.461
32. 201T  0.475
33. H3255  0.551
34. LOU-NH91  0.69
